Laboratory results as given in patent US9487510B2, “Substituted heterocyclic acetamides as kappa opioid receptor (KOR) agonists” (Dr. Reddy's Laboratories Ltd., priority 2012, dated 2016).

Assays:
[1] = molecular target: human KOR receptor (Homo sapiens, UniProt P41145); assay: IP-One HTRF assay, potency of KOR agonists, dose-response in transiently transfected COS-7 cells; assay type: cell-based
Sequence of human KOR receptor (P41145 whole entry): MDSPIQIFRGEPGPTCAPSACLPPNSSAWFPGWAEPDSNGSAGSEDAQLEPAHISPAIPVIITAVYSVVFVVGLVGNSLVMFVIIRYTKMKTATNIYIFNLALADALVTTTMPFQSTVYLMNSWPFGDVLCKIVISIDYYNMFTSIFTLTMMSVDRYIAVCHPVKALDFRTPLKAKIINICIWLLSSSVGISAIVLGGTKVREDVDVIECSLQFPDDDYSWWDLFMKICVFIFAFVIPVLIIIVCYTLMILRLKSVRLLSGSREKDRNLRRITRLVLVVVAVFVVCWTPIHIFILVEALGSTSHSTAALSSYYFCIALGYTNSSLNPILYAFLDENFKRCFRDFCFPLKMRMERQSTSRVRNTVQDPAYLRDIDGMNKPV

**Q.** What does the source list for `CC(C)(C)OC(=O)COc1cccc([C@@H](CN2CCCC2)NC(=O)Cc2ccc3oc(=O)n(Cc4ccccc4)c3c2)c1` [Example 63, (S)-t-butyl-2-(3-(1-(2-(3-benzyl-2-oxo-2,3-dihydrobenzo[d]oxazol-5-yl)acetamido)-2-(pyrrolidin-1-yl)ethyl)phenoxy)acetate]?
**A.** EC50 [1]: ≤ 50 nM; melting point: 68 to 70 °C

**Q.** Which results are given for `O=C(Cc1ccc2oc(=O)[nH]c2c1)N[C@H](CN1CC[C@H](O)C1)C1CCCCC1` [Example 67, N-((S)-1-cyclohexyl-2-((S)-3-hydroxypyrrolidin-1-yl)ethyl)-2-(2-oxo-2,3-dihydrobenzo[d]oxazol-5-yl)acetamide]?
**A.** EC50 [1]: ≤ 50 nM; melting point: 173 to 174 °C

**Q.** For `CN(C(=O)Cc1ccc2oc(=O)n(Cc3ccccc3)c2c1)[C@H](CN1CCCC1)c1cccc(OCC(=O)OC(C)(C)C)c1` [Example 68, (S)-tert-butyl-2-(3-(1-(2-(3-benzyl-2-oxo-2,3-dihydrobenzo[d]oxazol-5-yl)-N-methylacetamido)-2-(pyrrolidin-1-yl)ethyl)phenoxy)acetate], which EC50 [1] is on record?
**A.** ≤ 50 nM

**Q.** And the melting point?
**A.** 111 to 113 °C

**Q.** For `O=C1Cc2ccc(CC(=O)N[C@H](CN3CC[C@H](O)C3)C3CCCCC3)cc2N1` [Example 69, N-((S)-1-cyclohexyl-2-((S)-3-hydroxypyrrolidin-1-yl)ethyl)-2-(2-oxoindolin-6-yl)acetamide], which EC50 [1] is on record?
**A.** ≤ 50 nM

**Q.** What about the melting point of the same molecule?
**A.** 132 to 133 °C

**Q.** With `CN(C(=O)Cc1ccc2oc(=O)[nH]c2c1)[C@H](CN1CC[C@H](O)C1)C1CCCCC1` [Example 70, N-((S)-1-cyclohexyl-2-((S)-3-hydroxypyrrolidin-1-yl)ethyl)-N-methyl-2-(2-oxo-2,3dihydrobenzo[d]oxazol-5-yl)acetamide] as the molecule, how does the EC50 [1] read?
**A.** ≤ 50 nM

**Q.** What about the melting point of the same molecule?
**A.** 130 to 131 °C

**Q.** With `N#Cc1cccc(Cn2c(=O)oc3ccc(CC(=O)N[C@H](CN4CC[C@H](O)C4)c4ccccc4)cc32)c1` [Example 72, 2-(3-(3-cyanobenzyl)-2-oxo-2,3-dihydrobenzo[d]oxazol-5-yl)-N-((S)-2-((S)-3-hydroxypyrrolidin-1-yl)-1-phenylethyl)acetamide] as the molecule, how does the EC50 [1] read?
**A.** ≤ 50 nM

**Q.** And the melting point?
**A.** 65 to 68 °C

**Q.** Which EC50 [1] does the source give for `O=C(Cc1ccc2oc(=O)[nH]c2c1)N[C@H](CN1CCCC1)c1cccc(O)c1` [Example 84, (S)-N-(1-(3-hydroxyphenyl)-2-(pyrrolidin-1-yl)ethyl)-2-(2-oxo-2,3-dihydrobenzo[d]oxazol-5-yl)acetamide] here?
**A.** ≤ 50 nM

**Q.** What about the melting point of the same molecule?
**A.** 140 to 142 °C

**Q.** With `CN(C(=O)Cc1ccc2c(c1)NC(=O)C2)C(CN1CCCC1)c1cccc(OCC(=O)O)c1.Cl` (stereo not shown) [Example 87, 2-(3-(1-(N-methyl-2-(2-oxoindolin-6-yl)acetamido)-2-(pyrrolidin-1-yl)ethyl)phenoxy)acetic acid hydrochloride] as the molecule, how does the EC50 [1] read?
**A.** ≤ 50 nM

**Q.** And the melting point?
**A.** 169 to 171 °C

**Q.** Which EC50 [1] does the source give for `CN(C(=O)Cc1ccc2oc(=O)n(Cc3cccc(C(N)=O)c3)c2c1)[C@H](CN1CC[C@H](O)C1)c1ccccc1` [Example 88, 3-((5-(2-(((S)-2-((S)-3-hydroxypyrrolidin-1-yl)-1-phenylethyl)(methyl)amino)-2-oxoethyl)-2-oxobenzo[d]oxazol-3(2H)-yl)methyl)benzamide] here?
**A.** ≤ 50 nM

**Q.** And the melting point?
**A.** 181 to 183 °C

**Q.** Which results are given for `CN(C(=O)Cc1ccc2oc(=O)n(Cc3ccccc3)c2c1)[C@H](CN1CCCC1)c1cccc(O)c1` [Example 89, (S)-2-(3-benzyl-2-oxo-2,3-dihydrobenzo[d]oxazol-5-yl)-N-(1-(3-hydroxyphenyl)-2-(pyrrolidin-1-yl)ethyl)-N-methylacetamide]?
**A.** EC50 [1]: 101 to 1000 nM; melting point: 165 to 167 °C

**Q.** Which results are given for `NC(=O)c1cccc(Cn2c(=O)oc3ccc(CC(=O)N[C@H](CN4CCCC4)c4ccccc4)cc32)c1` [Example 91, (S)-3-((2-oxo-5-(2-oxo-2-(1-phenyl-2-(pyrrolidin-1-yl)ethylamino)ethyl)benzo[d]oxazol-3(2H)-yl)methyl)benzamide]?
**A.** EC50 [1]: ≤ 50 nM; melting point: 171 to 172 °C
